# Source: PubChem BioAssay (NCI)
#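 Growth conditions: 96-well plates. Treatment: test compound, 48 hours, 5 concentrations. Analysis: linear interpolation between bracketing concentrations; unreached endpoints set to highest concentration. At the TGI there is no net growth.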
# Experiments:
# Test in all cases: NCI tumour cell line growth inhibition, 48 h
# [1] = tested on: HCC-2998 colon
# [2] = tested on: 786-0 renal
# [3] = tested on: OVCAR-4 ovarian
# [4] = tested on: DU-145 prostate
# [5] = tested on: SF-539 CNS
# [6] = tested on: NCI/ADR-RES ovarian
# [7] = tested on: MDA-MB-231 breast
# [8] = tested on: COLO 205 colon
# [9] = tested on: SK-MEL-5 melanoma
# [10] = tested on: M14 melanoma
# [11] = tested on: BT-549 breast
# [12] = tested on: MALME-3M melanoma
# [13] = tested on: MCF7 breast
# [14] = tested on: HCT-15 colon
# [15] = tested on: HOP-62 NSCLC
# [16] = tested on: HOP-92 NSCLC
# [17] = tested on: ACHN renal
# [18] = tested on: NCI-H522 lung
# [19] = tested on: OVCAR-3 ovarian
# [20] = tested on: KM12 colon
# [21] = tested on: T-47D breast
# [22] = tested on: EKVX NSCLC
# [23] = tested on: HL-60(TB) leukemia
# [24] = tested on: SNB-75 CNS
# [25] = tested on: CAKI-1 renal
# [26] = tested on: HCT-116 colon
# [27] = tested on: SR leukemia
# [28] = tested on: SK-MEL-2 melanoma
# [29] = tested on: TK-10 renal
# [30] = tested on: NCI-H23 lung
# [31] = tested on: K-562 leukemia
# [32] = tested on: UACC-257 melanoma
# [33] = tested on: SNB-19 CNS
# [34] = tested on: NCI-H460 lung
# [35] = tested on: HS 578T breast
# [36] = tested on: SK-OV-3 ovarian
# [37] = tested on: A549 NSCLC
# [38] = tested on: A498 renal
# [39] = tested on: UACC-62 melanoma
# [40] = tested on: RXF 393 renal
# [41] = tested on: RPMI-8226 leukemia
# [42] = tested on: OVCAR-8 ovarian
# [43] = tested on: SF-268 CNS
# [44] = tested on: SF-295 CNS
# [45] = tested on: SK-MEL-28 melanoma
# [46] = tested on: IGROV1 ovarian
# [47] = tested on: SN12C renal
# [48] = tested on: OVCAR-5 ovarian
# [49] = tested on: LOX IMVI melanoma
# [50] = tested on: CCRF-CEM leukemia
# [51] = tested on: HT29 colon
# [52] = tested on: MDA-MB-435
# [53] = tested on: NCI-H226 lung
# [54] = tested on: MDA-N
# [55] = tested on: U251 CNS
# [56] = tested on: PC-3 prostate
# [57] = tested on: MOLT-4 leukemia
# [58] = tested on: UO-31 renal
# [59] = tested on: SW-620 colon
smiles,measurement,setting,value
COC(=O)C(CCSC)NC(=O)CSc1nnc(COc2ccc(Cl)cc2)n1-c1ccccc1 (stereo not drawn),TGI,[1],18.2 µM
same,TGI,[2],30 µM
same,TGI,[3],31.8 µM
same,TGI,[4],33 µM
same,TGI,[5],33.7 µM
same,TGI,[6],39.2 µM
same,TGI,[7],31.3 µM
same,TGI,[8],34.9 µM
same,TGI,[9],32.7 µM
same,TGI,[10],33.5 µM
same,TGI,[11],37.4 µM
same,TGI,[12],37.1 µM
same,TGI,[13],41.8 µM
same,TGI,[14],39.8 µM
same,TGI,[15],23.8 µM
same,TGI,[16],34.6 µM
same,TGI,[17],32.1 µM
same,TGI,[18],18.1 µM
same,TGI,[19],5.37 µM
same,TGI,[20],34.4 µM
same,TGI,[21],> 78.7 µM
same,TGI,[22],75.3 µM
same,TGI,[23],38.6 µM
same,TGI,[24],33.7 µM
same,TGI,[25],35.9 µM
same,TGI,[26],30.7 µM
same,TGI,[27],42.4 µM
same,TGI,[28],30.6 µM
same,TGI,[29],33.3 µM
same,TGI,[30],34.9 µM
same,TGI,[31],69.9 µM
same,TGI,[32],31.2 µM
same,TGI,[33],47.1 µM
same,TGI,[34],29.8 µM
same,TGI,[35],55.6 µM
same,TGI,[36],43.2 µM
same,TGI,[37],> 70.8 µM
same,TGI,[38],46.7 µM
same,TGI,[39],32.7 µM
same,TGI,[40],35.4 µM
same,TGI,[41],34.5 µM
same,TGI,[42],36.3 µM
same,TGI,[43],34.5 µM
same,TGI,[44],32.3 µM
same,TGI,[45],33.8 µM
same,TGI,[46],31.1 µM
same,TGI,[47],33.1 µM
same,TGI,[48],38.7 µM
same,TGI,[49],32.4 µM
same,TGI,[50],> 66.1 µM
same,TGI,[51],34.7 µM
same,TGI,[52],34.3 µM
same,TGI,[53],43.3 µM
same,TGI,[54],34.1 µM
same,TGI,[55],30.9 µM
same,TGI,[56],38.4 µM
same,TGI,[57],43 µM
same,TGI,[58],13.7 µM
same,TGI,[59],49.7 µM
COc1cc(/C=C/C(=O)O)ccc1OS(=O)(=O)O,TGI,[1],> 100 µM
same,TGI,[2],> 100 µM
same,TGI,[3],> 100 µM
same,TGI,[4],> 100 µM
same,TGI,[5],> 100 µM
same,TGI,[6],> 100 µM
same,TGI,[7],> 100 µM
same,TGI,[8],> 100 µM
same,TGI,[9],> 100 µM
same,TGI,[10],> 100 µM
same,TGI,[11],> 100 µM
same,TGI,[12],> 100 µM
same,TGI,[13],> 100 µM
same,TGI,[14],> 100 µM
same,TGI,[15],> 100 µM
same,TGI,[16],> 100 µM
same,TGI,[17],> 100 µM
same,TGI,[18],> 100 µM
same,TGI,[19],> 100 µM
same,TGI,[20],> 100 µM
same,TGI,[21],> 100 µM
same,TGI,[22],> 100 µM
same,TGI,[23],> 100 µM
same,TGI,[24],> 100 µM
same,TGI,[25],> 100 µM
same,TGI,[26],> 100 µM
same,TGI,[27],> 100 µM
same,TGI,[28],> 100 µM
same,TGI,[29],> 100 µM
same,TGI,[30],> 100 µM
same,TGI,[31],> 100 µM
same,TGI,[32],> 100 µM
same,TGI,[33],> 100 µM
same,TGI,[34],> 100 µM
same,TGI,[35],> 100 µM
same,TGI,[36],> 100 µM
same,TGI,[37],> 100 µM
same,TGI,[38],> 100 µM
same,TGI,[39],> 100 µM
same,TGI,[40],> 100 µM
same,TGI,[41],> 100 µM
same,TGI,[42],> 100 µM
same,TGI,[43],> 100 µM
same,TGI,[44],> 100 µM
same,TGI,[45],> 100 µM
same,TGI,[46],> 100 µM
same,TGI,[47],> 100 µM
same,TGI,[48],> 100 µM
same,TGI,[49],> 100 µM
same,TGI,[50],> 100 µM
same,TGI,[51],> 100 µM
same,TGI,[52],> 100 µM
same,TGI,[53],> 100 µM
same,TGI,[54],> 100 µM
same,TGI,[55],> 100 µM
same,TGI,[56],> 100 µM
same,TGI,[57],> 100 µM
same,TGI,[58],> 100 µM
same,TGI,[59],> 100 µM
CC1(C)[C@@H]2C[C@H]1c1cnc(-c3ccccn3)cc1[C@H]2C(O)[C@@H]1c2cc(-c3ccccn3)ncc2[C@H]2C[C@@H]1C2(C)C (stereo partly drawn),TGI,[1],20.8 µM
same,TGI,[2],4.69 µM
same,TGI,[3],> 9.95 µM
same,TGI,[4],3.47 µM
same,TGI,[6],1.41 µM
same,TGI,[7],3.89 µM
same,TGI,[8],4.06 µM
same,TGI,[9],1.42 µM
same,TGI,[10],1.85 µM
same,TGI,[11],3.8 µM
same,TGI,[12],21.6 µM
same,TGI,[13],13.5 µM
same,TGI,[14],25.2 µM
same,TGI,[15],5.58 µM
same,TGI,[16],21.8 µM
same,TGI,[17],1.54 µM
same,TGI,[18],3.06 µM
same,TGI,[19],1.77 µM
same,TGI,[20],24.7 µM
same,TGI,[21],53.1 µM
same,TGI,[22],13.3 µM
same,TGI,[23],0.112 µM
same,TGI,[24],87.3 µM
same,TGI,[25],2.43 µM
same,TGI,[26],5.34 µM
same,TGI,[27],0.354 µM
same,TGI,[28],13 µM
same,TGI,[29],> 100 µM
same,TGI,[30],2.79 µM
same,TGI,[31],> 52 µM
same,TGI,[32],26 µM
same,TGI,[33],15.5 µM
same,TGI,[34],24.3 µM
same,TGI,[35],37.3 µM
same,TGI,[36],14.8 µM
same,TGI,[37],18.3 µM
same,TGI,[38],6.24 µM
same,TGI,[39],7.66 µM
same,TGI,[40],1.62 µM
same,TGI,[41],1.93 µM
same,TGI,[42],3.1 µM
same,TGI,[43],16.6 µM
same,TGI,[44],11.4 µM
same,TGI,[45],29.7 µM
same,TGI,[46],6.98 µM
same,TGI,[47],1.89 µM
same,TGI,[48],18 µM
same,TGI,[49],4.52 µM
same,TGI,[51],3.57 µM
same,TGI,[52],> 38.5 µM
same,TGI,[53],0.502 µM
same,TGI,[54],11 µM
same,TGI,[55],7.45 µM
same,TGI,[56],11 µM
same,TGI,[57],0.505 µM
same,TGI,[58],0.445 µM
same,TGI,[59],47.1 µM
COc1cc2nc(-c3c(F)cccc3F)n(Cc3c(F)cccc3F)c2cc1Cc1c(F)cccc1F,TGI,[1],> 100 µM
same,TGI,[2],> 100 µM
same,TGI,[3],10.9 µM
same,TGI,[4],> 100 µM
same,TGI,[5],> 100 µM
same,TGI,[6],> 100 µM
same,TGI,[7],> 100 µM
same,TGI,[8],> 100 µM
same,TGI,[9],> 100 µM
same,TGI,[10],> 100 µM
same,TGI,[11],> 100 µM
same,TGI,[12],> 100 µM
same,TGI,[13],> 63.9 µM
same,TGI,[14],> 100 µM
same,TGI,[15],> 100 µM
same,TGI,[16],> 30.8 µM
same,TGI,[17],> 100 µM
same,TGI,[18],> 100 µM
same,TGI,[19],> 100 µM
same,TGI,[20],> 100 µM
same,TGI,[21],> 100 µM
same,TGI,[22],> 100 µM
same,TGI,[23],> 100 µM
same,TGI,[24],> 70.8 µM
same,TGI,[25],> 100 µM
same,TGI,[26],> 100 µM
same,TGI,[27],> 100 µM
same,TGI,[28],> 82.2 µM
same,TGI,[29],> 100 µM
same,TGI,[30],> 100 µM
same,TGI,[31],> 100 µM
same,TGI,[32],> 100 µM
same,TGI,[33],> 100 µM
same,TGI,[34],> 100 µM
same,TGI,[35],> 100 µM
same,TGI,[36],> 100 µM
same,TGI,[37],> 100 µM
same,TGI,[38],> 100 µM
same,TGI,[39],> 100 µM
same,TGI,[40],> 28.9 µM
same,TGI,[41],> 100 µM
same,TGI,[42],> 100 µM
same,TGI,[43],> 100 µM
same,TGI,[44],> 100 µM
same,TGI,[45],1.4 µM
same,TGI,[47],> 100 µM
same,TGI,[48],> 100 µM
same,TGI,[49],> 100 µM
same,TGI,[50],> 100 µM
same,TGI,[51],> 100 µM
same,TGI,[52],> 100 µM
same,TGI,[53],> 100 µM
same,TGI,[54],> 100 µM
same,TGI,[55],> 100 µM
same,TGI,[56],> 100 µM
same,TGI,[57],> 100 µM
same,TGI,[58],> 100 µM
same,TGI,[59],> 100 µM
